Data reported in patent US20230147389A1, “Transdermal Drug Delivery System for Delivering a Drug to a Patient” (priority 2021, published 2023).
Read-outs that look alike come from different tables or passages of the source.

Assays:
[1] = pig
Description: Further, the rate of permeation may be determined using the Attenuated Total Reflection Fourier Transform Infrared Spectroscopy (ATR-FTIR), and multivariate modeling. […] The flux results may be obtained based on comprehensive in vitro permeation studies by using the pig abdominal skin samples, that may be normalized to reflect the equivalence of 0.10 cm skin thickness.
A proprietary chemometric modeling method may be used to perform quantitative analysis based on spectral data. In addition, the method may be used to determine the concentration of the active ingredient dissolved in the EthoGel formulation.
The skin permeation study may be conducted using a Bruker ATR-FTIR instrument (Model Alpha; Bruker Optics Ltd., MA, USA) equipped with a 2×2 mm diamond spectral window. Pig abdominal skin samples may be obtained from a local meat supplier. The skin samples may be treated by removing the fat and connecting tissues from the dermis side, followed by cutting them into 2×2 cm-size pieces and keeping them at freezing temperature for later use. Further, skin thickness may be measured before the experiment by allowing the skin sample to warm to room temperature and by using a Material Thickness Meter (Model No. PCE-CT 26; PCE Americas Inc, Jupiter, Fla., USA).
In a typical experiment, the skin sample may be put on the spectral window of the spectrometer with the dermis side facing the window. Further, about 1 g of the EthoGel formulation may be applied on the stratum corneum side of the skin sample, which may be covered by an applicator with an area of 3.5 cm^2 to minimize the loss of permeation enhancers (i.e., ethanol) through evaporation from the formulation. IR spectra may be taken at 15-60 min intervals and the experiment may be continued for up to 72 hours when needed. Further, the spectra may be used for calculating w/w % of the active ingredient (ibuprofen or diclofenac), ethanol, and glycerin on the dermis side of the skin. Chemometric modeling may be conducted using the software Unscrambler (CAMO Software AS, Oslo, Norway). The diffusion coefficients of the active ingredient, ethanol, and glycerin can be calculated using the following equation:
where D is the diffusion coefficient (cm2/H), L is the lag time (hour) and h is the skin thickness (cm).
The flux J (μg/cm2/H) is calculated using the following equation:
where D is the diffusion coefficient, C is the concentration (μg/mL) of the active ingredient dissolved in the EthoGel formulation and h is the thickness of the skin.

[2] = current marketed TD patch products; per 24 hours; cited from earlier work

SMILES	flux achieved by EGATDDS [1]	flux ([1]; 1 w/w %) [μg/cm2/H]	flux ([1]; 4 w/w %) [μg/cm2/H]	amount of drug delivered in 24 hours [2] [mg]
O=C(O)Cc1ccccc1Nc1c(Cl)cccc1Cl [diclofenac, Diclofenac]	5-324 μg/cm2/H	54		
CC(C)Cc1ccc(C(C)C(=O)O)cc1 (stereo not drawn) [ibuprofen, Ibuprofen]	25-1337 μg/cm2/H		283	
CCN(C)C(=O)Oc1cccc([C@H](C)N(C)C)c1 [rivastigmine]				4.5
CCCN(CCc1cccs1)[C@H]1CCc2c(O)cccc2C1 [ritigotine]				1
